Assay results reported in patent publication US20220362186A1, “Application of p-Hydroxyphenylpropionic Acid to Prepare Medicine for Preventing and Treating Respiratory Tract Infection” (SUN YAT-SEN UNIVERSITY, priority 2020, published 2022).
Converted amounts (≈) assume the structure as drawn. Read-outs that look alike come from different tables or passages of the source. Marks after values point to notes of the source that are not given here. One block for each compound: values may come before it.

Key:
[1] = system: lipopolysaccharide-induced mouse acute lung injury model; assay: Lipopolysaccharide-induced mouse acute lung injury model; format: in vivo, Balb/c mice; conditions: for LDH Activity in Lung / MPO Activity in Lung / MPO Content in Lung / Lung Tissue Dry-to-wet Ratio: 24 h after LPS; for Lung Tissue Dry-to-wet Ratio: mean ± SD
Experimental: Experimental method: the mice were acclimatized for 72 hours in an SPF animal room with constant temperature and constant humidity after purchase. The mice were randomly divided into four groups, that is, a blank control group (n=10), a model control group (n=10), a positive control medicine naringin group (n=11) and a p-hydroxyphenylpropionic acid group (n=11). The naringin group (180 mg/kg) and the p-hydroxyphenylpropionic acid group (51.6 mg/kg) were continuously subjected to intragastric administration once a day, for three days respectively; and the blank control group and the model control group were administered intragastrically with equivoluminal normal saline. The mice were anesthetized through intraperitoneal injection of 0.5 ml of pentobarbital sodium (65 mg/kg) three hours after the last intragastric administration. For the mice in the model group, the naringin group and the p-hydroxyphenylpropionic acid group, 50 μl of lipopolysaccharide 055:B5 solution (0.8 mg/ml) was slowly instilled into the nasal cavities of the mice until being completely absorbed, and a mouse acute lung injury model was established. The mice in the blank control group received nasal drops of the equivoluminal normal saline. The mice were killed by a cervical vertebra dislocation method 24 hours after the lipopolysaccharide modeling was performed, and the whole lung tissue of the mice was collected and put into a sterile centrifugal tube and was stored in liquid nitrogen within 30 seconds. After the lung tissue stored in the liquid nitrogen was placed at room temperature for 30 minutes, a wet weight was weighed. A drying vessel was dried at 80° C. for 24 hours and then was taken out and placed at room temperature for weighing. Then, the drying vessel was taken out after 1 hour of constant weight at 80° C. and was placed at room temperature for weighing. After the weight of the drying vessel was constant, the lung tissue was placed in the drying vessel, was dried at 80° C. for 48 hours and taken out, and was placed at room temperature for weighing. Then, the drying vessel was taken out after 1 hour of constant weight at 80° C. and was placed at room temperature for weighing. […] [formula] [formula] 24 hours after the lipopolysaccharide modeling was performed, the mice were killed and about 400 mg of lung tissue was collected. 1 ml of PBS-10% Triton was added into the lung tissue to serve as a lysis solution for homogenization. After the protein concentration was measured by a BCA protein concentration kit, the sample loading quantity was adjusted to 50 μg of total protein and 100 μl of total volume, and the content of myeloperoxidase (MPO), the activity of the MPO and the activity of lactic dehydrogenase (LDH) in the lung tissue sample were measured by kits. The data in the table are presented as mean±standard deviation, and analysis of difference among multiple groups is realized by a one-way analysis of variance Beforroni method and SPSS 22.0 software.

Staphylococcus aureus = assay: Antibacterial experiment in vitro, broth microdilution (CLSI); format: cell-based; conditions: 20-hour cultivation at 37° C.
chronic smoked mice = assay: Chronic lung injury caused by smoking (chronic smoked mice); format: in vivo, Balb/c mice; conditions: for Cchord / FEV50/FVC: 8 weeks smoking; for Lymphocyte count of alveolar lavage fluid / Monocyte count of alveolar lavage fluid / Neutrophil count of alveolar lavage fluid: BALF; for IL-1β in lung tissue / IL-6 in lung tissue / IL-18 in lung tissue / LTB4 in lung tissue / TNF-α in lung tissue: lung tissue homogenate, ELISA
Klebsiella pneumoniae = assay: Antibacterial experiment in vitro, broth microdilution (CLSI); format: cell-based; conditions: 20 h, 20-hour cultivation at 37° C.
[2] = 51.6 mg/kg intragastric once a day for three days
[3] = high-dose 60 mg/kg intragastric
[4] = 180 mg/kg intragastric once a day for three days

MIC (Staphylococcus aureus; Staphylococcus aureus, strain S4, read-out: MIC): 64 µg/mL (≈ 385 µM)
MIC (Staphylococcus aureus; strain S1): 64 µg/mL (≈ 385 µM)
MIC (Staphylococcus aureus; strain S2): 64 µg/mL (≈ 385 µM)
MIC (Staphylococcus aureus; strain S3): 64 µg/mL (≈ 385 µM)
MIC (Staphylococcus aureus; strain S5): 64 µg/mL (≈ 385 µM)
MIC (Staphylococcus aureus; strain S6): 64 µg/mL (≈ 385 µM)
MIC (Staphylococcus aureus; strain S7): 64 µg/mL (≈ 385 µM)
MIC (Staphylococcus aureus; strain S8): 64 µg/mL (≈ 385 µM)
MIC (Staphylococcus aureus; strain S9): 64 µg/mL (≈ 385 µM)
MIC (Staphylococcus aureus; strain S10): 64 µg/mL (≈ 385 µM)
MIC (Klebsiella pneumoniae; strain K11): 64 µg/mL (≈ 385 µM)
MIC (Klebsiella pneumoniae; Klebsiella pneumoniae, strain K1): 128 µg/mL (≈ 770 µM)
MIC (Klebsiella pneumoniae; Klebsiella pneumoniae, strain K2): 128 µg/mL (≈ 770 µM)
MIC (Klebsiella pneumoniae; Klebsiella pneumoniae, strain K3): 128 µg/mL (≈ 770 µM)
MIC (Klebsiella pneumoniae; Klebsiella pneumoniae, strain K4): 128 µg/mL (≈ 770 µM)
MIC (Klebsiella pneumoniae; Klebsiella pneumoniae, strain K5): 128 µg/mL (≈ 770 µM)
MIC (Klebsiella pneumoniae; Klebsiella pneumoniae, strain K6): 64 µg/mL (≈ 385 µM)
MIC (Klebsiella pneumoniae; Klebsiella pneumoniae, strain K7): 128 µg/mL (≈ 770 µM)
MIC (Klebsiella pneumoniae; Klebsiella pneumoniae, strain K8): 64 µg/mL (≈ 385 µM)
MIC (Klebsiella pneumoniae; Klebsiella pneumoniae, strain K9): 64 µg/mL (≈ 385 µM)
MIC (Klebsiella pneumoniae; Klebsiella pneumoniae, strain K10): 64 µg/mL (≈ 385 µM)
MIC (Klebsiella pneumoniae; Klebsiella pneumoniae, strain K12): 64 µg/mL (≈ 385 µM)
SMILES: O=C(O)CCc1ccc(O)cc1 [HPPA, p-Hydroxyphenylpropionic acid]
LDH Activity in Lung [1, 2]: 271.19 ± 27.70 ## units/gprot
MPO Activity in Lung [1, 2]: 1.756 ± 0.190 ## units/gprot
MPO Content in Lung [1, 2]: 324.09 ± 36.33 ## pg/ml
Lung Tissue Dry-to-wet Ratio [1, 2]: 4.90 ± 0.52
Cchord (chronic smoked mice; [3]): 0.041 ± 0.0029 mL/cm H2O
FEV50/FVC (chronic smoked mice; [3]): 0.333 ± 0.040
Lymphocyte count of alveolar lavage fluid (chronic smoked mice; [3]): 1.014 ± 0.107# 10^5/mL
Monocyte count of alveolar lavage fluid (chronic smoked mice; [3]): 3.100 ± 0.554## 10^5/mL
Neutrophil count of alveolar lavage fluid (chronic smoked mice; [3]): 0.743 ± 0.190## 10^5/mL
IL-1β in lung tissue (chronic smoked mice; [3]): 35.27 ± 6.509 pg/mL
IL-6 in lung tissue (chronic smoked mice; [3]): 1027 ± 90.56 pg/mL
IL-18 in lung tissue (chronic smoked mice; [3]): 157.4 ± 9.098 pg/mL
LTB4 in lung tissue (chronic smoked mice; [3]): 7241 ± 1024 pg/mL
TNF-α in lung tissue (chronic smoked mice; [3]): 92.45 ± 13.24 pg/mL
Cchord (chronic smoked mice; low-dose 15 mg/kg intragastric): 0.0448 ± 0.0041 mL/cm H2O
FEV50/FVC (chronic smoked mice; low-dose 15 mg/kg intragastric): 0.360 ± 0.039
Lymphocyte count of alveolar lavage fluid (chronic smoked mice; low-dose 15 mg/kg intragastric): 1.317 ± 0.117 10^5/mL
Monocyte count of alveolar lavage fluid (chronic smoked mice; low-dose 15 mg/kg intragastric): 3.871 ± 0.544 10^5/mL
Neutrophil count of alveolar lavage fluid (chronic smoked mice; low-dose 15 mg/kg intragastric): 1.129 ± 0.287 10^5/mL
IL-1β in lung tissue (chronic smoked mice; low-dose 15 mg/kg intragastric): 47.18 ± 6.822 pg/mL
IL-6 in lung tissue (chronic smoked mice; low-dose 15 mg/kg intragastric): 1483 ± 300.3 pg/mL
IL-18 in lung tissue (chronic smoked mice; low-dose 15 mg/kg intragastric): 180.1 ± 6.667 pg/mL
LTB4 in lung tissue (chronic smoked mice; low-dose 15 mg/kg intragastric): 8344 ± 1356#^ pg/mL
TNF-α in lung tissue (chronic smoked mice; low-dose 15 mg/kg intragastric): 126.3 ± 10.34 pg/mL

SMILES: C[C@@H]1O[C@@H](O[C@H]2[C@H](Oc3cc(O)c4c(c3)O[C@H](c3ccc(O)cc3)CC4=O)O[C@H](CO)[C@@H](O)[C@@H]2O)[C@H](O)[C@H](O)[C@H]1O [Naringin, naringin]
LDH Activity in Lung [1, 4]: 310.93 ± 27.77 units/gprot
MPO Activity in Lung [1, 4]: 1.913 ± 0.262 units/gprot
MPO Content in Lung [1, 4]: 415.85 ± 52.15 pg/mL
Lung Tissue Dry-to-wet Ratio [1, 4]: 5.15 ± 0.47
Effect on lung inflammation, pulmonary edema, neutrophil infiltration and cell necrosis in ALI (in words) ([1]; 180 mg/kg intragastric, P<0.01 vs model control): effectively inhibit the progress of lung inflammation in the ALI and alleviate pulmonary edema, local neutrophil infiltration and cell necrosis

SMILES: O=C(Nc1c(Cl)cncc1Cl)c1ccc(OC(F)F)c(OCC2CC2)c1 [Roflumilast, roflumilast, reference compound]
Cchord (chronic smoked mice; 5 mg/kg intragastric): 0.042 ± 0.0054 mL/cm H2O
FEV50/FVC (chronic smoked mice; 5 mg/kg intragastric): 0.367 ± 0.042
Lymphocyte count of alveolar lavage fluid (chronic smoked mice; 5 mg/kg intragastric): 0.914 ± 0.227## 10^5/mL
Monocyte count of alveolar lavage fluid (chronic smoked mice; 5 mg/kg intragastric): 3.014 ± 0.319## 10^5/mL
Neutrophil count of alveolar lavage fluid (chronic smoked mice; 5 mg/kg intragastric): 0.729 ± 0.180## 10^5/mL
IL-1β in lung tissue (chronic smoked mice; 5 mg/kg intragastric): 34.02 ± 7.098 pg/mL
IL-6 in lung tissue (chronic smoked mice; 5 mg/kg intragastric): 963.2 ± 188.8 pg/mL
IL-18 in lung tissue (chronic smoked mice; 5 mg/kg intragastric): 143.4 ± 18.34 pg/mL
LTB4 in lung tissue (chronic smoked mice; 5 mg/kg intragastric): 6809 ± 670.8 pg/mL
TNF-α in lung tissue (chronic smoked mice; 5 mg/kg intragastric): 102.4 ± 17.34 pg/mL
